Laboratory results published in the supplement of paper PMC11061612.

Legend:
AZD1775 = compound: C=CCn1c(=O)c2cnc(Nc3ccc(N4CCN(C)CC4)cc3)nc2n1-c1cccc(C(C)(C)O)n1 [AZD1775]
In short: (§1)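 Cancer cell lines were seeded in 1536-well plates in 7.5 μl DMEM/F12 or RPMI with 10% FBS, held 24 hours at 37°C and 5% CO2, then dosed for 72 hours (final DMSO typically 0.2%). Viability was read by CellTiter-Glo 2.0 luminescence and scaled between blank-well and DMSO-well means. The single-agent IC50 comes from dose responses fitted to a two-parameter logistic curve with a non-linear mixed effects model.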

Selumetinib = compound: Cn1cnc2c(F)c(Nc3ccc(Br)cc3Cl)c(C(=O)NOCCO)cc21 [Selumetinib]
In short: as §1

AZD8186 = compound: C[C@@H](Nc1cc(F)cc(F)c1)c1cc(C(=O)N(C)C)cc2c(=O)cc(N3CCOCC3)oc12 [AZD8186]; conditions: max 3 µM
In short: as §1

AZD6738 = compound: C[C@@H]1COCCN1C2=NC(=NC(=C2)C3(CC3)[S@](=N)(=O)C)C4=C5C=CNC5=NC=C4 [AZD6738]; conditions: max 10 µM
In short: as §1

AZD0156 = compound: CN(C)CCCOc1ccc(-c2ccc3ncc4c(c3c2)n(C2CCOCC2)c(=O)n4C)cn1 [AZD0156]
In short: as §1

AZD7648 = compound: Cc1cc2ncnn2cc1Nc1ncc2c(n1)n(C1CCOCC1)c(=O)n2C [AZD7648]; conditions: max 10 µM
In short: as §1

SN-38 = compound: CCc1c2c(nc3ccc(O)cc13)-c1cc3c(c(=O)n1C2)COC(=O)[C@]3(O)CC [SN-38]; conditions: max 0.3 µM
In short: as §1

Venetoclax = compound: CC1(C)CCC(CN2CCN(c3ccc(C(=O)NS(=O)(=O)c4ccc(NCC5CCOCC5)c([N+](=O)[O-])c4)c(Oc4cnc5[nH]ccc5c4)c3)CC2)=C(c2ccc(Cl)cc2)C1 [Venetoclax]; conditions: max 1 µM
In short: as §1

SG3199 = compound: CC1=CN2[C@@H](C1)C=NC3=CC(=C(C=C3C2=O)OC)OCCCCCOC4=C(C=C5C(=C4)N=C[C@@H]6CC(=CN6C5=O)C)OC [SG3199]; conditions: max 0.001 µM
In short: as §1

Capivasertib = compound: C1CN(CCC1(C(=O)N[C@@H](CCO)C2=CC=C(C=C2)Cl)N)C3=NC=NC4=C3C=CN4 [Capivasertib]
In short: as §1

Dasatinib = compound: CC1=C(C(=CC=C1)Cl)NC(=O)C2=CN=C(S2)NC3=CC(=NC(=N3)C)N4CCN(CC4)CCO [Dasatinib]; conditions: max 2 µM
In short: as §1

AZD5153 = compound: COc1nnc2ccc(N3CCC(c4ccc(OCCN5CCN(C)C(=O)[C@H]5C)cc4)CC3)nn12 [AZD5153]; conditions: max 1 µM
In short: as §1

Doxorubicin = compound: COc1cccc2c1C(=O)c1c(O)c3c(c(O)c1C2=O)C[C@@](O)(C(=O)CO)C[C@@H]3O[C@H]1C[C@H](N)[C@H](O)[C@H](C)O1 [Doxorubicin]; conditions: max 1 µM
In short: as §1

AZD5991 = compound: Cc1c2c(nn1C)CSCc1cc(n(C)n1)CSc1cc(c3ccccc3c1)OCCCc1c(C(=O)O)n(C)c3c-2c(Cl)ccc13 [AZD5991]; conditions: max 1 µM
In short: as §1

Trametinib = compound: CC(=O)Nc1cccc(-n2c(=O)n(C3CC3)c(=O)c3c(Nc4ccc(I)cc4F)n(C)c(=O)c(C)c32)c1 [Trametinib]; conditions: max 1 µM
In short: as §1

Gefitinib = compound: COc1cc2ncnc(Nc3ccc(F)c(Cl)c3)c2cc1OCCCN1CCOCC1 [Gefitinib]; conditions: max 10 µM
In short: as §1

Alisertib = compound: COc1cc(Nc2ncc3c(n2)-c2ccc(Cl)cc2C(c2c(F)cccc2OC)=NC3)ccc1C(=O)O [Alisertib]; conditions: max 10 µM
In short: as §1

Palbociclib = compound: CC(=O)c1c(C)c2cnc(Nc3ccc(N4CCNCC4)cn3)nc2n(C2CCCC2)c1=O [Palbociclib]; conditions: max 10 µM
In short: as §1

AZD4320 = compound: CN(CC[C@H](CSC1=CC=CC=C1)NC2=C(C=C(C=C2)S(=O)(=O)NC(=O)C3=CC=C(C=C3)N4CCC(CC4)[C@H](C5=CC=CC=C5C6=CC=C(C=C6)Cl)O)S(=O)(=O)C(F)(F)F)CCO [AZD4320]; conditions: max 1 µM
In short: as §1

AZD2811 = compound: CCN(CCO)CCCOc1ccc2c(Nc3cc(CC(=O)Nc4cccc(F)c4)[nH]n3)ncnc2c1 [AZD2811]; conditions: max 1 µM
In short: as §1

Savolitinib = compound: C[C@@H](c1ccc2nccn2c1)n1nnc2ncc(-c3cnn(C)c3)nc21 [Savolitinib]; conditions: max 1 µM
In short: as §1

Prexasertib = compound: COc1cccc(OCCCN)c1-c1cc(Nc2cnc(C#N)cn2)n[nH]1 [Prexasertib]; conditions: max 1 µM
In short: as §1

Olaparib = compound: O=C(c1cc(Cc2n[nH]c(=O)c3ccccc23)ccc1F)N1CCN(C(=O)C2CC2)CC1 [Olaparib]; conditions: max 10 µM
In short: as §1

Taselisib = compound: Cc1nc(-c2cn3c(n2)-c2ccc(-c4cnn(C(C)(C)C(N)=O)c4)cc2OCC3)n(C(C)C)n1 [Taselisib]; conditions: max 10 µM
In short: as §1

Lapatinib = compound: CS(=O)(=O)CCNCc1ccc(-c2ccc3ncnc(Nc4ccc(OCc5cccc(F)c5)c(Cl)c4)c3c2)o1 [Lapatinib]; conditions: max 10 µM
In short: as §1

AZD1390 = compound: CC(C)n1c(=O)n(C)c2cnc3cc(F)c(-c4ccc(OCCCN5CCCCC5)nc4)cc3c21 [AZD1390]; conditions: max 0.3 µM
In short: as §1

Crizotinib = compound: C[C@@H](Oc1cc(-c2cnn(C3CCNCC3)c2)cnc1N)c1c(Cl)ccc(F)c1Cl [Crizotinib]; conditions: max 10 µM
In short: as §1

Row | Cell Line | IC50, cell viability 72 h (AZD1775; max 3 µM) | IC50, cell viability 72 h (Selumetinib; max 10 µM) | IC50, cell viability 72 h (AZD8186) | IC50, cell viability 72 h (AZD6738) | IC50, cell viability 72 h (AZD0156; max 3 µM) | IC50, cell viability 72 h (AZD7648) | IC50, cell viability 72 h (SN-38) | IC50, cell viability 72 h (Venetoclax) | IC50, cell viability 72 h (SG3199) | IC50, cell viability 72 h (Capivasertib; max 10 µM) | IC50, cell viability 72 h (Dasatinib) | IC50, cell viability 72 h (AZD5153) | IC50, cell viability 72 h (Doxorubicin) | IC50, cell viability 72 h (AZD5991) | IC50, cell viability 72 h (Trametinib) | IC50, cell viability 72 h (Gefitinib) | IC50, cell viability 72 h (Alisertib) | IC50, cell viability 72 h (Palbociclib) | IC50, cell viability 72 h (AZD4320) | IC50, cell viability 72 h (AZD2811) | IC50, cell viability 72 h (Savolitinib) | IC50, cell viability 72 h (Prexasertib) | IC50, cell viability 72 h (Olaparib) | IC50, cell viability 72 h (Taselisib) | IC50, cell viability 72 h (Lapatinib) | IC50, cell viability 72 h (AZD1390) | IC50, cell viability 72 h (Crizotinib) | IC50, cell viability 72 h (AZD1775; max 1 µM) | IC50, cell viability 72 h (AZD0156; max 1 µM) | IC50, cell viability 72 h (Selumetinib; max 3 µM) | IC50, cell viability 72 h (Capivasertib; max 3 µM)
1 | NB1 (Neuroblastoma) | 1360 nM | > 10000 nM | > 3000 nM | 4730 nM | > 3000 nM | > 10000 nM | 24 nM | > 1000 nM | > 1 nM | 5180 nM | > 2000 nM | > 1000 nM | > 1000 nM | > 1000 nM | > 1000 nM | > 10000 nM | > 10000 nM | > 10000 nM | > 1000 nM | 186 nM | > 1000 nM | 184 nM | > 10000 nM | 1200 nM | > 10000 nM | > 300 nM | 628 nM |  |  |  | 
2 | NCI-H1341 (Small Cell Lung Carcinoma) | 1240 nM | > 10000 nM | > 3000 nM | 6030 nM | > 3000 nM | > 10000 nM | 13.8 nM | > 1000 nM | > 1 nM | 9050 nM | > 2000 nM | 739 nM | 587 nM | > 1000 nM | > 1000 nM | > 10000 nM | 910 nM | > 10000 nM | 59.3 nM | > 1000 nM | > 1000 nM | 47.1 nM | > 10000 nM | 684 nM | > 10000 nM | > 300 nM | > 10000 nM |  |  |  | 
3 | NCI-H1963 (Small Cell Lung Carcinoma) |  | 8820 nM | > 3000 nM | 2730 nM |  | > 10000 nM | 36.7 nM | 614 nM | > 1 nM | > 10000 nM | > 2000 nM | 99.3 nM | 830 nM | > 1000 nM | > 1000 nM | > 10000 nM | 208 nM | 6900 nM | 15.2 nM | 36.1 nM | > 1000 nM | 44.3 nM | > 10000 nM | 9650 nM | > 10000 nM | > 300 nM | 3040 nM | 525 nM | > 1000 nM |  | 
4 | NCI-H2373 (Mesothelioma) | > 3000 nM | > 10000 nM | > 3000 nM | > 10000 nM | > 3000 nM | > 10000 nM | 58.9 nM | > 1000 nM | > 1 nM | > 10000 nM | > 2000 nM | > 1000 nM | 313 nM | > 1000 nM | > 1000 nM | > 10000 nM | > 10000 nM | > 10000 nM | > 1000 nM | > 1000 nM | > 1000 nM | > 1000 nM | > 10000 nM | 3520 nM | > 10000 nM | > 300 nM | > 10000 nM |  |  |  | 
5 | NMC-G1 (Low Grade Glioma) |  |  | > 3000 nM | > 10000 nM |  | > 10000 nM | > 300 nM | > 1000 nM | > 1 nM |  |  |  | > 1000 nM | > 1000 nM | > 1000 nM |  | > 10000 nM |  | > 1000 nM | > 1000 nM |  | > 1000 nM | > 10000 nM | > 10000 nM |  |  |  | > 1000 nM | > 1000 nM | > 3000 nM | > 3000 nM
6 | OVCAR-3 (Ovarian Carcinoma) | 1600 nM | > 10000 nM | > 3000 nM | > 10000 nM | > 3000 nM | > 10000 nM | 231 nM | > 1000 nM | > 1 nM | > 10000 nM | > 2000 nM | 475 nM | > 1000 nM | > 1000 nM | > 1000 nM | > 10000 nM | > 10000 nM | > 10000 nM | > 1000 nM | > 1000 nM | > 1000 nM | 198 nM | > 10000 nM | 5630 nM | > 10000 nM | > 300 nM | > 10000 nM |  |  |  | 
7 | P30-OHK (B-Lymphoblastic Leukemia) | 660 nM | > 10000 nM | > 3000 nM | 3470 nM | > 3000 nM | > 10000 nM | 9.37 nM | > 1000 nM | > 1 nM | > 10000 nM | > 2000 nM | 63.3 nM | 202 nM | 835 nM | > 1000 nM | > 10000 nM | 231 nM | > 10000 nM | 173 nM | 37.9 nM | > 1000 nM | 20.5 nM | > 10000 nM | 6340 nM | > 10000 nM | > 300 nM | 2780 nM |  |  |  | 
8 | TUR (Acute Myeloid Leukemia) | 575 nM | > 10000 nM | > 3000 nM | 3440 nM | > 3000 nM | > 10000 nM | 22.9 nM | > 1000 nM | > 1 nM | 2860 nM | > 2000 nM | > 1000 nM | 626 nM |  | > 1000 nM | > 10000 nM | > 10000 nM | > 10000 nM | > 1000 nM | > 1000 nM | > 1000 nM | 16.4 nM | > 10000 nM | 1210 nM | > 10000 nM | > 300 nM | > 10000 nM |  |  |  | 
